Assay results as given in ChEMBL document CHEMBL1153636, “The phosphoramidate ProTide approach greatly enhances the activity of beta-2'-C-methylguanosine against hepatitis C virus” (Bioorg Med Chem Lett, 2009).

Key:
Hepatitis C virus [1] = assay: Antiviral activity against HCV assessed as inhibition of viral replicon replication in human Huh5-2 cells; assay type: functional, organism-based, Hepacivirus hominis; settings: Huh-5-2
[2] = Cytotoxicity against human Huh5-2 cells; assay type: cell-based, Huh-5-2
carboxypeptidase [3] = assay: Stability in presence of carboxypeptidase assessed as parent ProTide compound remaining; assay type: ADME
carboxypeptidase [4] = assay: Stability in presence of carboxypeptidase assessed as parent ProTide compound remaining after 10 mins; assay type: ADME; settings: read-out: Stability
carboxypeptidase [5] = assay: Stability in presence of carboxypeptidase assessed as parent ProTide compound remaining after 13 hrs; assay type: ADME; settings: read-out: Stability
[6] = Inhibition of HCV RNA-dependent RNA polymerase; parameters: species or system Hepacivirus hominis
Hepatitis C virus [7] = assay: Antiviral activity against HCV by viral replicon assay; assay type: functional, organism-based, Hepacivirus hominis

IC50 [6] [µM] | EC50 (Hepatitis C virus [7]) [µM] | SMILES | EC50 (Hepatitis C virus [1]) [µM] | CC50 [2] [µM] | half-life (carboxypeptidase [3]) [h] | remaining at 10 min (carboxypeptidase [4]) [%] | remaining at 13 h (carboxypeptidase [5]) [%]
– | – | C[C@H](NP(=O)(OC[C@H]1O[C@@H](n2cnc3c(N)ncnc32)[C@](C)(O)[C@@H]1O)Oc1cccc2ccccc12)C(=O)OC(C)(C)C (some centres undefined) | 4.18 | > 50 | – | – | –
– | – | CCOC(=O)[C@H](C)NP(=O)(OC[C@H]1O[C@@H](n2cnc3c(N)ncnc32)[C@](C)(O)[C@@H]1O)Oc1cccc2ccccc12 (some centres undefined) | 0.24 | > 50 | – | – | –
– | – | C[C@H](NP(=O)(OC[C@H]1O[C@@H](n2cnc3c(=O)[nH]c(N)nc32)[C@](C)(O)[C@@H]1O)Oc1cccc2ccccc12)C(=O)OCc1ccccc1 (some centres undefined) | 0.12 | > 50 | 0.05 | 7 | –
– | – | CCOC(=O)[C@H](C)NP(=O)(OC[C@H]1O[C@@H](n2cnc3c(=O)[nH]c(N)nc32)[C@](C)(O)[C@@H]1O)Oc1cccc2ccccc12 (some centres undefined) | 0.28 | > 50 | – | – | –
– | – | C[C@H](NP(=O)(OC[C@H]1O[C@@H](n2cnc3c(=O)[nH]c(N)nc32)[C@](C)(O)[C@@H]1O)Oc1cccc2ccccc12)C(=O)OC(C)(C)C (some centres undefined) | 27 | > 50 | 33 | – | 24
– | – | COC(=O)[C@H](C)NP(=O)(OC[C@H]1O[C@@H](n2cnc3c(=O)[nH]c(N)nc32)[C@](C)(O)[C@@H]1O)Oc1cccc2ccccc12 (some centres undefined) | 0.23 | > 50 | – | – | –
– | – | C[C@H](NP(=O)(OC[C@H]1O[C@@H](n2cnc3c(N)ncnc32)[C@](C)(O)[C@@H]1O)Oc1cccc2ccccc12)C(=O)OCc1ccccc1 (some centres undefined) | 0.27 | > 50 | – | – | –
– | – | C[C@@]1(O)[C@H](O)[C@@H](CO)O[C@H]1n1cnc2c(N)ncnc21 | 0.25 | > 50 | – | – | –
0.13 | 3.5 | C[C@@]1(O)[C@H](O)[C@@H](CO)O[C@H]1n1cnc2c(=O)[nH]c(N)nc21 [2'-B-METHYL-GUANOSINE] | 10.1 | > 50 | – | – | –
